Experimental data as given in PMC3931136 (Scientific Reports, 2014).

System: S. suis BgaC
Experiment: p-nitrophenol release, absorbance at […] nm
Type: biochemical, Streptococcus suis
Settings: pH 5.5, 42 °C, 30 min (stated optimum); PBS, 10 mM MgCl2, 10 mM DTT

Compound: O=[N+]([O-])c1ccc(O[C@@H]2O[C@H](CO)[C@H](O)[C@H](O)[C@H]2O)cc1 [pNPG, p-nitrophenyl-β-galactopyranoside]
- Km: 398 µM
